Laboratory results published in PubChem BioAssay (NCI).
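Five concentrations, 48 hours, 96-well plates. TGI denotes the concentration required for complete inhibition of growth.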

Columns and labels:
Assay in all cases: inhibition of tumour cell growth, NCI panel, 48 h
OVCAR-5 ovarian = test system: OVCAR-5 ovarian
NCI-H522 lung = test system: NCI-H522 lung
NCI-H23 lung = test system: NCI-H23 lung
HT29 colon = test system: HT29 colon
A549 NSCLC = test system: A549 NSCLC
IGROV1 ovarian = test system: IGROV1 ovarian
HCT-116 colon = test system: HCT-116 colon
SW-620 colon = test system: SW-620 colon
SNB-19 CNS = test system: SNB-19 CNS
HOP-92 NSCLC = test system: HOP-92 NSCLC
SK-OV-3 ovarian = test system: SK-OV-3 ovarian
T-47D breast = test system: T-47D breast
COLO 205 colon = test system: COLO 205 colon
MCF7 breast = test system: MCF7 breast
HOP-62 NSCLC = test system: HOP-62 NSCLC
TK-10 renal = test system: TK-10 renal
HS 578T breast = test system: HS 578T breast
PC-3 prostate = test system: PC-3 prostate
KM12 colon = test system: KM12 colon
HCT-15 colon = test system: HCT-15 colon
M14 melanoma = test system: M14 melanoma
DU-145 prostate = test system: DU-145 prostate
SF-295 CNS = test system: SF-295 CNS
MALME-3M melanoma = test system: MALME-3M melanoma
SF-268 CNS = test system: SF-268 CNS
SK-MEL-5 melanoma = test system: SK-MEL-5 melanoma
HCC-2998 colon = test system: HCC-2998 colon
SK-MEL-28 melanoma = test system: SK-MEL-28 melanoma
NCI-H226 lung = test system: NCI-H226 lung
BT-549 breast = test system: BT-549 breast
CCRF-CEM leukemia = test system: CCRF-CEM leukemia
RPMI-8226 leukemia = test system: RPMI-8226 leukemia
HL-60(TB) leukemia = test system: HL-60(TB) leukemia
OVCAR-8 ovarian = test system: OVCAR-8 ovarian
NCI-H460 lung = test system: NCI-H460 lung
LOX IMVI melanoma = test system: LOX IMVI melanoma
NCI/ADR-RES ovarian = test system: NCI/ADR-RES ovarian
MDA-N = test system: MDA-N
MDA-MB-231 breast = test system: MDA-MB-231 breast
U251 CNS = test system: U251 CNS
SF-539 CNS = test system: SF-539 CNS
MOLT-4 leukemia = test system: MOLT-4 leukemia
K-562 leukemia = test system: K-562 leukemia
UACC-62 melanoma = test system: UACC-62 melanoma
OVCAR-4 ovarian = test system: OVCAR-4 ovarian
CAKI-1 renal = test system: CAKI-1 renal
A498 renal = test system: A498 renal
UACC-257 melanoma = test system: UACC-257 melanoma
786-0 renal = test system: 786-0 renal
RXF 393 renal = test system: RXF 393 renal
SR leukemia = test system: SR leukemia
ACHN renal = test system: ACHN renal
SN12C renal = test system: SN12C renal
MDA-MB-435 = test system: MDA-MB-435
OVCAR-3 ovarian = test system: OVCAR-3 ovarian
SNB-75 CNS = test system: SNB-75 CNS
SK-MEL-2 melanoma = test system: SK-MEL-2 melanoma
EKVX NSCLC = test system: EKVX NSCLC
UO-31 renal = test system: UO-31 renal

## COc1cc2c3c(c1OC)C1(C=CC(=O)C=C1)CC3NCC2 (centres undefined)
OVCAR-5 ovarian
  TGI: > 100 µM
NCI-H522 lung
  TGI: > 100 µM
NCI-H23 lung
  TGI: > 100 µM
HT29 colon
  TGI: > 100 µM
A549 NSCLC
  TGI: > 100 µM
IGROV1 ovarian
  TGI: > 100 µM
HCT-116 colon
  TGI: > 100 µM
SW-620 colon
  TGI: > 100 µM
SNB-19 CNS
  TGI: > 100 µM
HOP-92 NSCLC
  TGI: > 100 µM
SK-OV-3 ovarian
  TGI: > 100 µM
T-47D breast
  TGI: > 100 µM
COLO 205 colon
  TGI: > 100 µM
MCF7 breast
  TGI: > 100 µM
HOP-62 NSCLC
  TGI: > 100 µM
TK-10 renal
  TGI: > 100 µM
HS 578T breast
  TGI: > 100 µM
PC-3 prostate
  TGI: > 100 µM
KM12 colon
  TGI: > 100 µM
HCT-15 colon
  TGI: > 100 µM
M14 melanoma
  TGI: > 100 µM
DU-145 prostate
  TGI: > 100 µM
SF-295 CNS
  TGI: > 100 µM
MALME-3M melanoma
  TGI: > 100 µM
SF-268 CNS
  TGI: > 100 µM
SK-MEL-5 melanoma
  TGI: > 100 µM
HCC-2998 colon
  TGI: > 100 µM
SK-MEL-28 melanoma
  TGI: > 100 µM
NCI-H226 lung
  TGI: > 100 µM
BT-549 breast
  TGI: > 100 µM
CCRF-CEM leukemia
  TGI: > 100 µM
RPMI-8226 leukemia
  TGI: > 100 µM
HL-60(TB) leukemia
  TGI: > 100 µM
OVCAR-8 ovarian
  TGI: > 100 µM
NCI-H460 lung
  TGI: > 100 µM
LOX IMVI melanoma
  TGI: > 100 µM
NCI/ADR-RES ovarian
  TGI: > 100 µM
MDA-N
  TGI: > 100 µM
MDA-MB-231 breast
  TGI: > 100 µM
U251 CNS
  TGI: > 100 µM
SF-539 CNS
  TGI: > 100 µM
MOLT-4 leukemia
  TGI: > 100 µM
K-562 leukemia
  TGI: > 100 µM
UACC-62 melanoma
  TGI: > 100 µM
OVCAR-4 ovarian
  TGI: > 100 µM
CAKI-1 renal
  TGI: > 100 µM
A498 renal
  TGI: > 100 µM
UACC-257 melanoma
  TGI: > 100 µM
786-0 renal
  TGI: > 100 µM
RXF 393 renal
  TGI: > 100 µM
SR leukemia
  TGI: > 100 µM
ACHN renal
  TGI: > 100 µM
SN12C renal
  TGI: > 100 µM
MDA-MB-435
  TGI: > 100 µM
OVCAR-3 ovarian
  TGI: > 100 µM
SNB-75 CNS
  TGI: > 100 µM
SK-MEL-2 melanoma
  TGI: > 100 µM
EKVX NSCLC
  TGI: > 100 µM

## Cc1ccc2sc3ccc(N)cc3c(=O)c2c1
OVCAR-5 ovarian
  TGI: > 100 µM
NCI-H522 lung
  TGI: > 100 µM
NCI-H23 lung
  TGI: > 100 µM
HT29 colon
  TGI: > 100 µM
A549 NSCLC
  TGI: > 100 µM
IGROV1 ovarian
  TGI: > 100 µM
HCT-116 colon
  TGI: > 100 µM
SW-620 colon
  TGI: > 100 µM
SNB-19 CNS
  TGI: > 100 µM
HOP-92 NSCLC
  TGI: 98.3 µM
SK-OV-3 ovarian
  TGI: > 100 µM
T-47D breast
  TGI: 78.5 µM
COLO 205 colon
  TGI: > 100 µM
MCF7 breast
  TGI: > 100 µM
HOP-62 NSCLC
  TGI: > 100 µM
TK-10 renal
  TGI: > 100 µM
HS 578T breast
  TGI: > 100 µM
PC-3 prostate
  TGI: > 100 µM
KM12 colon
  TGI: > 100 µM
HCT-15 colon
  TGI: > 100 µM
M14 melanoma
  TGI: > 100 µM
DU-145 prostate
  TGI: > 100 µM
SF-295 CNS
  TGI: > 100 µM
SF-268 CNS
  TGI: > 100 µM
SK-MEL-5 melanoma
  TGI: > 100 µM
HCC-2998 colon
  TGI: > 100 µM
SK-MEL-28 melanoma
  TGI: > 100 µM
NCI-H226 lung
  TGI: > 100 µM
BT-549 breast
  TGI: > 100 µM
CCRF-CEM leukemia
  TGI: > 100 µM
HL-60(TB) leukemia
  TGI: > 100 µM
OVCAR-8 ovarian
  TGI: > 100 µM
NCI-H460 lung
  TGI: > 100 µM
LOX IMVI melanoma
  TGI: > 100 µM
NCI/ADR-RES ovarian
  TGI: > 100 µM
MDA-N
  TGI: > 100 µM
MDA-MB-231 breast
  TGI: > 100 µM
U251 CNS
  TGI: > 100 µM
SF-539 CNS
  TGI: > 100 µM
MOLT-4 leukemia
  TGI: > 100 µM
K-562 leukemia
  TGI: > 100 µM
UACC-62 melanoma
  TGI: > 100 µM
OVCAR-4 ovarian
  TGI: > 100 µM
CAKI-1 renal
  TGI: > 100 µM
A498 renal
  TGI: > 100 µM
UO-31 renal
  TGI: > 100 µM
UACC-257 melanoma
  TGI: > 100 µM
786-0 renal
  TGI: > 100 µM
RXF 393 renal
  TGI: > 100 µM
SR leukemia
  TGI: > 100 µM
ACHN renal
  TGI: > 100 µM
SN12C renal
  TGI: > 100 µM
MDA-MB-435
  TGI: > 100 µM
OVCAR-3 ovarian
  TGI: > 100 µM
SK-MEL-2 melanoma
  TGI: > 100 µM
EKVX NSCLC
  TGI: > 100 µM
